# According to ChEMBL document CHEMBL3885881, “DrugMatrix”:
# Species: Rattus norvegicus
# Assay: DrugMatrix - Regimen: Daily Repeat
# Type: toxicity, organism-based, Sprague-Dawley
# Parameters: regimen Daily Repeat, gender Male, age 6-8 weeks
# Settings: in vivo, po, route oral GAVAGE, vehicle 100 % WATER; for ABSOLUTE BASOPHIL / ABSOLUTE EOSINOPHIL / ABSOLUTE LYMPHOCYTE / ABSOLUTE MONOCYTE / ABSOLUTE SEGMENTED NEUTROPHIL / BASOPHIL / EOSINOPHIL / ERYTHROCYTE COUNT / HEMATOCRIT / HEMOGLOBIN / LEUKOCYTE COUNT / LYMPHOCYTE / MEAN CORPUSCULAR HEMOGLOBIN / MEAN CORPUSCULAR HEMOGLOBIN CONCENTRATION / MEAN CORPUSCULAR VOLUME / MONOCYTE / NEUTROPHIL / NUCLEATED RED BLOOD CELLS / PLATELET COUNT: tissue Blood; for ALANINE AMINOTRANSFERASE / ALBUMIN / ALKALINE PHOSPHATASE / ASPARTATE AMINOTRANSFERASE / BLOOD UREA NITROGEN / CARBON DIOXIDE / CHLORIDE / CHOLESTEROL / CREATINE PHOSPHOKINASE / CREATININE / GLUCOSE / LACTATE DEHYDROGENASE / LIPASE / PHOSPHORUS / POTASSIUM / SODIUM / TOTAL BILIRUBIN / TOTAL PROTEIN / URIC ACID: tissue Plasma
# [1] = 11 mg/kg, 120 h, dose level Low, time 5 day
# [2] = 40 mg/kg, 72 h, dose level High, time 3 day
# [3] = 40 mg/kg, 120 h, dose level High, time 5 day
smiles,measurement,setting,value
CN(C)C(=O)Oc1cccc([N+](C)(C)C)c1.[Br-] [NEOSTIGMINE BROMIDE],ABSOLUTE BASOPHIL,[1],0 CELLS/uL
same,ABSOLUTE EOSINOPHIL,[1],28.67 CELLS/uL
same,ABSOLUTE LYMPHOCYTE,[1],4930.67 CELLS/uL
same,ABSOLUTE MONOCYTE,[1],109.33 CELLS/uL
same,ABSOLUTE SEGMENTED NEUTROPHIL,[1],798 CELLS/uL
same,BASOPHIL,[1],0%
same,EOSINOPHIL,[1],0.33%
same,ERYTHROCYTE COUNT,[1],5.49 x10E6/uL
same,HEMATOCRIT,[1],34.3%
same,HEMOGLOBIN,[1],13.23 G/DL
same,LEUKOCYTE COUNT,[1],5.87 x10E3/uL
same,LYMPHOCYTE,[1],83%
same,MEAN CORPUSCULAR HEMOGLOBIN,[1],24.1 pg
same,MEAN CORPUSCULAR HEMOGLOBIN CONCENTRATION,[1],38.57 G/DL
same,MEAN CORPUSCULAR VOLUME,[1],62.5 fL
same,MONOCYTE,[1],1.67%
same,NEUTROPHIL,[1],15%
same,NUCLEATED RED BLOOD CELLS,[1],0 /100WBC
same,PLATELET COUNT,[1],970 x10E3/uL
same,ALANINE AMINOTRANSFERASE,[1],54 u/L
same,ALBUMIN,[1],4 G/DL
same,ALKALINE PHOSPHATASE,[1],382.33 u/L
same,ASPARTATE AMINOTRANSFERASE,[1],83 u/L
same,BLOOD UREA NITROGEN,[1],14 mg/dL
same,CARBON DIOXIDE,[1],32.33 mmol/L
same,CHLORIDE,[1],99.33 MEQ/L
same,CHOLESTEROL,[1],67.33 mg/dL
same,CREATINE PHOSPHOKINASE,[1],225.33 u/L
same,CREATININE,[1],0.14 mg/dL
same,GLUCOSE,[1],155.33 mg/dL
same,LACTATE DEHYDROGENASE,[1],116 u/L
same,LIPASE,[1],9.33 u/L
same,PHOSPHORUS,[1],11.53 mg/dL
same,POTASSIUM,[1],5.88 MEQ/L
same,SODIUM,[1],144.8 MEQ/L
same,TOTAL BILIRUBIN,[1],0.17 mg/dL
same,TOTAL PROTEIN,[1],5.8 G/DL
same,URIC ACID,[1],0.8 mg/dL
same,ABSOLUTE BASOPHIL,[2],0 CELLS/uL
same,ABSOLUTE EOSINOPHIL,[2],29.33 CELLS/uL
same,ABSOLUTE LYMPHOCYTE,[2],8073 CELLS/uL
same,ABSOLUTE MONOCYTE,[2],28.67 CELLS/uL
same,ABSOLUTE SEGMENTED NEUTROPHIL,[2],702.33 CELLS/uL
same,BASOPHIL,[2],0%
same,EOSINOPHIL,[2],0.33%
same,ERYTHROCYTE COUNT,[2],5.28 x10E6/uL
same,HEMATOCRIT,[2],32.2%
same,HEMOGLOBIN,[2],12.53 G/DL
same,LEUKOCYTE COUNT,[2],8.83 x10E3/uL
same,LYMPHOCYTE,[2],91.33%
same,MEAN CORPUSCULAR HEMOGLOBIN,[2],23.7 pg
same,MEAN CORPUSCULAR HEMOGLOBIN CONCENTRATION,[2],38.93 G/DL
same,MEAN CORPUSCULAR VOLUME,[2],60.93 fL
same,MONOCYTE,[2],0.33%
same,NEUTROPHIL,[2],8%
same,NUCLEATED RED BLOOD CELLS,[2],0 /100WBC
same,PLATELET COUNT,[2],857.33 x10E3/uL
same,ALANINE AMINOTRANSFERASE,[2],53.67 u/L
same,ALBUMIN,[2],3.97 G/DL
same,ALKALINE PHOSPHATASE,[2],316.33 u/L
same,ASPARTATE AMINOTRANSFERASE,[2],90.33 u/L
same,BLOOD UREA NITROGEN,[2],13.33 mg/dL
same,CARBON DIOXIDE,[2],31.67 mmol/L
same,CHLORIDE,[2],100.67 MEQ/L
same,CHOLESTEROL,[2],85 mg/dL
same,CREATINE PHOSPHOKINASE,[2],289 u/L
same,CREATININE,[2],0.15 mg/dL
same,GLUCOSE,[2],135.33 mg/dL
same,LACTATE DEHYDROGENASE,[2],137.33 u/L
same,LIPASE,[2],9 u/L
same,PHOSPHORUS,[2],11.43 mg/dL
same,POTASSIUM,[2],6.3 MEQ/L
same,SODIUM,[2],143.1 MEQ/L
same,TOTAL BILIRUBIN,[2],0.2 mg/dL
same,TOTAL PROTEIN,[2],6.03 G/DL
same,URIC ACID,[2],0.83 mg/dL
same,ABSOLUTE BASOPHIL,[3],0 CELLS/uL
same,ABSOLUTE EOSINOPHIL,[3],26.33 CELLS/uL
same,ABSOLUTE LYMPHOCYTE,[3],8117.33 CELLS/uL
same,ABSOLUTE MONOCYTE,[3],169.67 CELLS/uL
same,ABSOLUTE SEGMENTED NEUTROPHIL,[3],1053.33 CELLS/uL
same,BASOPHIL,[3],0%
same,EOSINOPHIL,[3],0.33%
same,ERYTHROCYTE COUNT,[3],5.39 x10E6/uL
same,HEMATOCRIT,[3],33.9%
same,HEMOGLOBIN,[3],13 G/DL
same,LEUKOCYTE COUNT,[3],9.37 x10E3/uL
same,LYMPHOCYTE,[3],87%
same,MEAN CORPUSCULAR HEMOGLOBIN,[3],24.13 pg
same,MEAN CORPUSCULAR HEMOGLOBIN CONCENTRATION,[3],38.37 G/DL
same,MEAN CORPUSCULAR VOLUME,[3],62.93 fL
same,MONOCYTE,[3],1.67%
same,NEUTROPHIL,[3],11%
same,NUCLEATED RED BLOOD CELLS,[3],0.33 /100WBC
same,PLATELET COUNT,[3],1139.67 x10E3/uL
same,ALANINE AMINOTRANSFERASE,[3],52.33 u/L
same,ALBUMIN,[3],3.97 G/DL
same,ALKALINE PHOSPHATASE,[3],386 u/L
same,ASPARTATE AMINOTRANSFERASE,[3],89.67 u/L
same,BLOOD UREA NITROGEN,[3],15.33 mg/dL
same,CARBON DIOXIDE,[3],32.33 mmol/L
same,CHLORIDE,[3],102.33 MEQ/L
same,CHOLESTEROL,[3],79.33 mg/dL
same,CREATINE PHOSPHOKINASE,[3],258 u/L
same,CREATININE,[3],0.16 mg/dL
same,GLUCOSE,[3],148.67 mg/dL
same,LACTATE DEHYDROGENASE,[3],117.33 u/L
same,LIPASE,[3],9.33 u/L
same,PHOSPHORUS,[3],11.17 mg/dL
same,POTASSIUM,[3],6.13 MEQ/L
same,SODIUM,[3],148.3 MEQ/L
same,TOTAL BILIRUBIN,[3],0.2 mg/dL
same,TOTAL PROTEIN,[3],5.87 G/DL
same,URIC ACID,[3],0.43 mg/dL
